Reference: patent publication US20100311756A1, “METHODS FOR DELAYING THE PROGRESSION OF AT LEAST ONE OF CARDIAC HYPERTROPHY, CARDIAC REMODELING OR LEFT VENTRICULAR FUNCTION OR THE ONSET OF HEART FAILURE IN SUBJECTS IN NEED OF TREATMENT THEREOF” (TAKEDA PHARMACEUTICALS NORTH AMERICA, INC., priority 2009, published 2010)

Assay: Serum uric acid level in rabbits (unpublished observations, 1998)
Format: in vivo
Conditions: oral dose of 10 mg/kg
From the text: The procedures used in this study were reviewed and approved by the Institutional Animal Care and Use Committee (IACUC) of QTest Labs for compliance with regulations and current accepted practices. All applicable sections of the Final Rules of the Animal Welfare Act regulations (Section 9 CFR) and the Public Health Service Policy on Humane Care and Use of Laboratory Animals (OPRR, NIH, 1986) were followed. At the end of the study, all animals were humanely euthanized in accordance with accepted guidelines of the American Veterinary Medical Association (See, American Veterinary Medicine Association (AVMA), 2000 Report of the AVMA Panel on Euthanasia, The Journal of the American Veterinary Medical Association, 218(5):669-696 (2001)). • Drugs Febuxostat and allopurinol (Sigma-Aldrich, St. Louis, Mo., USA) were each formulated as a suspension in 0.5% methylcellulose (Sigma-Aldrich, St. Louis, Mo.) as the vehicle. The febuxostat oral dose of 10 mg/kg was estimated to provide a similar plasma level of febuxostat as the clinically efficacious dose (See, Khosravan et al., Clinical Pharmacokinetics, 45(8):821-841 (2006)). […] Allopurinol was given orally at 60 mg/kg. […] The rabbits were anesthetized with an intramuscular injection of ketamine (35 mg/kg)/xylazine (5 mg/kg) and pre-surgery enrofloxacin (12 mg/kg). […]

Structure (SMILES): Cc1nc(-c2ccc(OCC(C)C)c(C#N)c2)sc1C(=O)O [febuxostat, 2-[3-cyano-4-(2-methylpropoxy)phenyl]-4-methylthiazole-5-carboxylic acid]
- Serum uric acid level: significant reduction
